From patent US12285393B2, “Roles of modulators of intersectin-Cdc42 signaling in Alzheimer's disease” (priority 2017, dated 2025)

Tests used:
microglia = assay: Pro-inflammatory microglia in the hippocampus (Iba-1); type: in vivo; settings: WT mice; 20× objective lens
Procedure: (§1) Tissue preparation: Mice were deeply anesthetized with 3% isoflourane vapor and euthanized by cervical dislocation. Brain tissues were harvested, and then either snap frozen for Western Blot analysis or fixed in 4% paraformaldehyde overnight for immunohistochemistry (IHC) analysis. Fixed brain tissues were washed with phosphate-buffered saline (PBS) and moved to cryoprotectant (30% sucrose in PBS) at 4° C. Once sunk in the cryoprotectant, brain tissues were subsequently embedded in the optimal cutting temperature compound (O.C.T) and rapidly frozen with chilled isopentane. Then, 8˜30 μm thickness of cryostate section was applied to brain tissues, 30 μm sections were immersed in the PBS and store at 4° C. refrigerator, and 8 μm sections were store at −80° C. refrigerator.
(§2) Immunohistochemistry analysis: All sections were first treated with 1% H2O2 in PBS for 20 minutes at room temperature, then incubated with 0.5% Triton X-100 for 30 minutes and blocked for 30 minutes at room temperature. Brain tissues were incubated with primary antibodies from Table 6, below. […] All sections were eventually dehydrated in 95% ethanol and mounted on coverslips for light microscopy (Carl Zeiss, Thornwood, New York, United States of America).
(§3) Methods: Brain tissues collected from each treatment group of mice from the behavior studies were subjected to pathological analysis (e.g., immunohistochemical analysis, as described above in Example 5). […] Growth cone dynamics and spine motility were either recorded with time-lapse microscopy or stained by using the fluorescein isothiocyanate (FITC) or Cyanine Dye 3 (Cy3)-conjugated Phalloidin.

[1] = Solubility profile by optical density; type: physicochemical; settings: for solubility: in DM19
Source text: ZCL278, ZCL279, and ZCL367 were all tested for solubility in the 5 FDA approved solvents to be used in humans. […] Results are shown below in Tables 2-4. Ratio refers to the optical density of the solution comprising the modulator compound/the optical density of the carder/solvent alone.

C57BL/6 mice = assay: Toxicity experiment, I.P. injection; type: in vivo; settings: 5 minutes to 24 hours
Procedure: ZCL 278 Toxicity Experiment: Individual C57BL/6 mice of 4-6 months of age from Jackson Laboratory (Bar Harbor, Maine, United States of America) were submitted to ZCL278 treatment for 5 minutes, 30 minutes, 2 hours and 24 hours. The dosage of ZCL278 for each mouse was 0.8 mg/g body weight delivered via intraperitoneal (I.P.) injection of a 15 mg/ml solution of ZCL278 was dissolved in the sesame oil (10% DMSO).
ZCL 279 Toxicity Experiment: Individual C57BL/6 mice of 4-6 months of age from Jackson Laboratory (Bar Harbor, Maine, United States of America) were submitted to ZCL279 treatment for 5 minutes, 30 minutes, 2 hours and 24 hours. The dosage of ZCL279 for each mouse was 0.6 mg/g body weight delivered via intraperitoneal (I.P.) injection of a 15 mg/ml solution of ZCL279 was dissolved in the sesame oil (10% DMSO).
ZCL367 Toxicity Experiment: Individual C57BL/6 mice of 4-6 months of age from Jackson Laboratory (Bar Harbor, Maine, United States of America) were submitted to ZCL367 treatment for 1 hour or 2 weeks. The dosage of ZCL367 for each time period was 0.4 mg/g body weight or 0.8 mg/g body weight, delivered via I.P. injection. […] Mice were sacrificed after end of 1 hour or 2 weeks.

[2] = test system: microtubule-associated tau; assay: Tau phosphorylation in the dentate gyrus (antibody AT8 immunostaining); type: in vivo, mice
Procedure: as §1, §2, §3

[3] = Dimethyl Sulfoxide (DMSO), RT-3 h
[4] = Polyethylene Glycol300 (PEG-300), 30%, RT-3 h
[5] = 1,2-Propanediol, 40%, 37° C., 1 hour
[6] = Dimethyl Sulfoxide (DMSO), 37° C., 1 hour
[7] = Pluronic F-68, 10%, 37° C., 1 hour
[8] = Polyethylene Glycol300 (PEG-300), 30%, 37° C., 1 hour

## Cc1cc(C)nc(NS(=O)(=O)c2ccc(NC(=S)NC(=O)COc3ccc(Br)cc3Cl)cc2)n1 [ZCL278, 4-(3-(2-(4-bromo-2-chloro-phenoxy)-acetyl)-thioureido)-N-(4,6-dimethylpyrimidin-2-yl)-benzenesulfonamide]
microglia
  Average Number of Microglia per Microscope Field, CA1: 12
  Average Number of Microglia per Microscope Field, CA2-3: 10
  Average Number of Microglia per Microscope Field, DG: 8
[1]; 1,2-Propanediol, 40%, RT-3 h
  Ratio (optical density solution/solvent alone): 3.154
  optical density of solution: 0.123
[1]; [3]
  Ratio (optical density solution/solvent alone): 1.119
  optical density of solution: 0.047
[1]; Pluronic F-68, RT-3 h
  Ratio (optical density solution/solvent alone): 2.675
  optical density of solution: 0.107
[1]; [4]
  Ratio (optical density solution/solvent alone): 2.275
  optical density of solution: 0.091
[1]; Sesame Oil, RT-3 h
  Ratio (optical density solution/solvent alone): 1.395
  optical density of solution: 0.06
[1]; Sterile Water, RT-3 h
  Ratio (optical density solution/solvent alone): 2.211
  optical density of solution: 0.084
[1]; Tween 80, 0.4%, RT-3 h
  Ratio (optical density solution/solvent alone): 1.725
  optical density of solution: 0.069
[1]; dPBS, RT-3 h
  Ratio (optical density solution/solvent alone): 1.795
  optical density of solution: 0.07
[1]
  solubility: completely soluble
C57BL/6 mice; 0.8 mg/g body weight I.P.
  gross anatomic toxicity (plasma, liver, kidney and brain tissues): no gross anatomic toxicity
[2]; 3×Tg AD mice
  phosphorylation of microtubule-associated tau in the dentate gyrus: not evident
[2]; WT mice
  phosphorylation of microtubule-associated tau in the dentate gyrus: no evidence

## O=S(=O)(Nc1ccccc1O)c1ccc2oc3ccc(S(=O)(=O)Nc4ccccc4O)cc3c2c1 [ZCL279, N^2,N^8-bis(2-hydroxyphenyl)dibenzo[b,d]furan-2,8-disulfonamide]
microglia
  Average Number of Microglia per Microscope Field, CA1: 13
  Average Number of Microglia per Microscope Field, CA2-3: 10
  Average Number of Microglia per Microscope Field, DG: 4
[1]; [5]
  Ratio (optical density solution/solvent alone): 2.359
  optical density of solution: 0.092
[1]; [6]
  Ratio (optical density solution/solvent alone): 1.071
  optical density of solution: 0.045
[1]; [7]
  Ratio (optical density solution/solvent alone): 2.667
  optical density of solution: 0.104
[1]; [8]
  Ratio (optical density solution/solvent alone): 3.762
  optical density of solution: 0.158
[1]; Sesame Oil, 37° C., 1 hour
  Ratio (optical density solution/solvent alone): 1.872
  optical density of solution: 0.088
[1]; Sterile Water, 37° C., 1 hour
  Ratio (optical density solution/solvent alone): 6.158
  optical density of solution: 0.234
[1]; Tween-80, 0.4%, 37° C., 1 hour
  Ratio (optical density solution/solvent alone): 3.105
  optical density of solution: 0.118
[1]; dPBS, 37° C., 1 hour
  Ratio (optical density solution/solvent alone): 3.846
  optical density of solution: 0.15
[1]
  solubility: completely soluble
C57BL/6 mice; 0.6 mg/g body weight I.P.
  gross anatomic toxicity (plasma, liver, kidney and brain tissues): no gross anatomic toxicity
[2]; 3×Tg AD mice
  phosphorylation of microtubule-associated tau in the dentate gyrus: not evident
[2]; WT mice
  phosphorylation of microtubule-associated tau in the dentate gyrus: no evidence
